Results reported in patent US6469005B1, “Propargylether derivatives” (priority 1999, dated 2002).

Legend:
Plasmopara viticola = experiment: D-1: Action against Plasmopara viticola on vines (residual-protective and residual-curative action); format: in vivo; settings: vine seedlings, spray mixture 0.02% active ingredient; protective (infected after 24 hours) or curative (sprayed 24 hours after infection); evaluated after 6 days
Protocol: D-1: Action Against Plasmopara viticola on Vines a) Residual-Protective Action
Vine seedlings are sprayed at the 4- to 5-leaf stage with a spray mixture (0.02% active ingredient) prepared from a wettable powder formulation of the test compound. After 24 hours, the treated plants are infected with a sporangia suspension of the fungus. Fungus infestation is evaluated after incubation for 6 days at 95-100% relative humidity and +20° C. […]
b) Residual-curative Action
Vine seedlings are infected at the 4- to 5-leaf stage with a sporangia suspension of the fungus. After incubation for 24 hours in a humidity chamber at 95-100% relative humidity and +20° C., the infected plants are dried and sprayed with a spray mixture (0.02% active ingredient) prepared from a wettable powder formulation of the test compound. After the spray coating has dried, the treated plants are placed in the humidity chamber again.
Fungus infestation is evaluated 6 days after infection.

Phytophthora [1] = experiment: D-2: Action against Phytophthora on tomato plants (residual-protective and systemic action); format: in vivo; settings: 0.02% active ingredient, sprayed (infected after 48 hours, evaluated after 5 days) or watered, systemic (infected after 96 hours, evaluated after 4 days)
Protocol: D-2: Action Against Phytophthora on Tomato Plants
(§1) a) Residual-protective Action
(§2) After a cultivation period of 3 weeks, tomato plants are sprayed with a spray mixture (0.02% active ingredient) prepared from a wettable powder formulation of the test compound. After 48 hours, the treated plants are infected with a sporangia suspension of the fungus. Fungus infestation is evaluated after incubation of the infected plants for 5 days at 90-100% relative humidity and +20° C.
as §2, with “watered” for “sprayed”, “ingredient based on the volume of the soil)” for “ingredient)”, “compound. […]” for “compound.”, “96” for “48”, “4” for “5”

Phytophthora [2] = experiment: D-3: Action against Phytophthora on potato plants (residual-protective and systemic action); format: in vivo; settings: potato plants (Bintje variety), 0.02% active ingredient; sprayed or watered (systemic), infected after 48 hours, evaluated after 4 days
Protocol: ID-3: Action Against Phytophthora on Potato Plants
as §1
(§3) 2-3 week old potato plants (Bintje variety) are sprayed with a spray mixture (0.02% active ingredient) prepared from a wettable powder formulation of the test compound. After 48 hours, the treated plants are infected with a sporangia suspension of the fungus. Fungus infestation is evaluated after incubation of the infected plants for 4 days at 90-100% relative humidity and +20° C.
as §3, with “watered” for “sprayed”, “ingredient based on the volume of the soil)” for “ingredient)”, “compound. […]” for “compound.”, “C. Fungal infestation is effectively controlled with compounds of Tables 1 to 47.” for “C.”

Row | Structure (SMILES) | fungal infestation (Plasmopara viticola on vines) (Plasmopara viticola) | fungal infestation (Phytophthora on tomato plants) (Phytophthora [1]) | fungal infestation (Phytophthora on potato plants) (Phytophthora [2]) | melting point
1 | C#CCOc1ccc(CCNC(=O)C(O)c2ccc(Cl)c(Cl)c2)cc1OC (stereo not drawn) [Compound E1.01, 2-(3,4-Dichloro-phenyl)-2-hydroxy-N-[2-(3-methoxy-4-prop-2-ynyloxy-phenyl)-ethyl]-acetamide] | completely inhibit fungal infestation | completely inhibit fungal infestation | completely inhibit fungal infestation | –
2 | CCC#CCOc1ccc(CCNC(=O)C(O)c2ccc(Cl)c(Cl)c2)cc1OC (stereo not drawn) [Compound E1.02, 2-(3,4-Dichloro-phenyl)-2-hydroxy-N-[2-(3-methoxy-4-pent-2-ynyloxy-phenyl)-ethyl]-acetamide] | completely inhibit fungal infestation | completely inhibit fungal infestation | completely inhibit fungal infestation | –
3 | C#CCOc1ccc(CCNC(=O)C(OC(=O)C(=O)OC)c2ccc(Br)cc2)cc1OC (stereo not drawn) [Compound E4.01, 2-(4-Bromo-phenyl)-2-methyloxalyloxy-N-[2-(3-methoxy-4-prop-2-ynyloxy-phenyl)-ethyl]-acetamide] | completely inhibit fungal infestation | completely inhibit fungal infestation | – | –
4 | C#CCOc1ccc(CCNC(=O)C(=O)c2ccc(-c3ccc(Cl)cc3)cc2)cc1OC | – | – | – | 122 to 124 °C
5 | COc1cc(CCNC(=O)[C@H](NC(=O)OC(C)(C)C)C(C)C)ccc1OCC#Cc1ccc(Cl)cc1 (stereo in doubt) | – | – | – | 141 to 142 °C
6 | C#CCOc1ccc(CCNC(=O)C(O)c2ccc(-c3ccc(C(F)(F)F)cc3)cc2)cc1OC (stereo not drawn) [Compound E3.03, 2-(4′-Trifluoro-biphenyl-4-yl)-2-hydroxy-N-[2-(3-methoxy-4-prop-2-ynyloxy-phenyl)-ethyl]-acetamide] | completely inhibit fungal infestation | completely inhibit fungal infestation | – | –
7 | CCC#CCOc1ccc(CCNC(=O)C(=O)c2ccc(Cl)c(Cl)c2)cc1OC [Compound E2.02, 2-(3,4-Dichloro-phenyl)-N-[2-(3-methoxy-4-pent-2-ynyloxy-phenyl)-ethyl]-2-oxo-acetamide] | completely inhibit fungal infestation | completely inhibit fungal infestation | – | 94 to 95 °C
